No end group written: not given here.
How the values were obtained:
[1] = tested on: anesthetized rats; test: Activity of ATT(35-45) on blood pressure in anesthetized rats; assay type: in vivo, Male Wistar rats; settings: for decrease in blood pressure: left femoral vein (i.v.), n=4, mean±standard deviation
Method: The activity of ATT(35-45) on blood pressure in anesthetized rats was determined in the following manner. Male Wistar rats (weighing 300 to 400 g, by CLEA Japan Inc.) were anesthetized with thiobutabarbital sodium (100 mg/kg i.p.), a catheter (SP-55) for measuring blood pressure connected to a transducer was inserted into the left carotid artery, and a catheter (SP-35) for intravenous administration was inserted into the left femoral vein. The peptide was dissolved in physiological saline containing 0.05% BSA, and doses of 0.01, 0.1, and 1 nmol/kg were administered through the left femoral vein. The blood pressure was continuously recorded on a polygraph (NEC Sanei).

[2] = tested on: guinea pig ileum specimens; test: Contracting activity of ATT(35-45) on guinea pig ileum specimens; assay type: cell-based; settings: 10^−10 M to 3×10^−7 M
Method: The horizontal axis in the figure represents the dose (M) of ATT(35-45), and the vertical axis represents the rate of contraction relative to the contraction of the guinea pig ileum specimens induced by 10^-6 M acetylcholine.
The contracting activity of ATT(35-45) on guinea pig ileum specimens was determined in the following manner. 13 to 15-week old male guinea pigs (std: Hartley) were exsanguinated, and the ileum was excised. The ileum was cut to a length of 1.5 cm to prepare specimens. The specimens were aerated with a gas mixture (95% O^2-5% CO2) while suspended in Tyrode's solution (137.9 mM NaCl, 2.7 mM KCl, 1.8 mM CaCl2, 0.5 mM MgCl2, 1.1 mM NaH2PO4, 11.9 mM NaHCO3, and 5.6 mM glucose) maintained at 37° C., and the isotonic contractions under a 0.5 g load were recorded. The peptide was administered cumulatively in the organ bath.

TGKASQFFGLM-NH2 [ATT(35-45), Thr-Gly-Lys-Ala-Ser-Gln-Phe-Phe-Gly-Leu-Met-NH2]
decrease in blood pressure ([1]; 0.01 nmol/kg): 12.3±0.8 mmHg | decrease in blood pressure ([1]; 0.1 nmol/kg): 21.5±1.8 mmHg | decrease in blood pressure ([1]; 1 nmol/kg): 33.8±6.6 mmHg | effect on blood pressure (in words) ([1]; doses of 0.01, 0.1 and 1 nmol/kg i.v.): dose-dependent decreases in blood pressure | contraction of guinea pig ileum specimens (in words) [2]: concentration-dependent contraction | maximum contraction relative to the contraction induced with 10^−6 M acetylcholine ([2]; guinea pig ileum): about 90%

From patent publication US7235531B2, “Tachykinin-like polypeptides and use thereof” (Takeda Pharmaceutical Company, priority 1999, dated 2007)
